# Data published in article PMC10726355, “Small Molecule Ligands of the BET-like Bromodomain, SmBRD3, Affect Schistosoma mansoni Survival, Oviposition, and Development” (Journal of Medicinal Chemistry, 2023).
# Entries after “also recorded” stand apart in the source; their conditions may differ. Like-named read-outs stand apart in the source and are kept apart here.
# How the values were obtained:
# [1] = target: SmBRD3(2) (Schistosoma mansoni, UniProt A0A5K4ESD7); assay: biochemical; format: binding
# [2] = tested on: S. mansoni miracidia; assay: Ex vivo miracidia to sporocyst transformation screening; set-up: species or system Schistosoma mansoni; conditions: 0.5-25 μM in 1% DMSO, 48 h
# Protocol: S. mansoni miracidia were obtained by hatching of schistosome eggs as previously described.[73] The resulting miracidial suspension was collected, washed with Chernin’s balanced salt solution (CBSS),[73] and enumerated prior to being used for ex vivo miracidia to sporocyst screens as previously reported.[66],[73] Each compound was tested at 0.5, 2.0, 5.0, 10, and 25 μM final concentrations (in 1% DMSO). Each treatment was set up in duplicate (15–25 miracidia/well). Each titration was performed in three independent experiments (two technical replicates per data point). Parasites cultured in CBSS (containing 1% DMSO) were included as negative controls. After 48 h incubation at 26 °C in the dark, dead, fully transformed and partially transformed miracidia were enumerated as previously described.[74],[75]
# [3] = tested on: SmBRD3(1,2); assay: Differential scanning fluorimetry (thermal shift), SmBRD3(1,2); conditions: DSF; 50 μM compound
# Protocol: Reported ΔTm values are the mean of two replicates.
# The differential scanning fluorimetry (DSF) or thermal stability assays were carried out following the protocol described by Niesen et al. and data were analysed as described previously.8 Thermal melting experiments were carried out using the Mx3005p real-time PCR machine (Agilent) and employing a protein concentration of 5 μM for the schistosomal bromodomains [SmBRD3(2),
# the DMSO content was 0.5% (v/v). Buffer conditions were 50 mM HEPES buffer, pH 7.5, 500 mM NaCl and a 1:500 dilution of SYPRO® Orange (Invitrogen, CA) was used. The 96-well PCR plates were sealed and centrifuged for 2 min at 1000 rpm at 25 °C before measurement. The temperature was raised with a step of 1 °C per 30 s from 25 °C to 85 °C, and fluorescence readings were taken
# difference between the transition midpoints of sample and reference wells containing protein without inhibitor in the same plate. Reported ΔTm values are the mean of two replicates.
# Isothermal titration calorimetry experiments were performed on a MicroCal PEAQ-ITC Automated or Manual (Malvern) and analysed with the MicroCal PEAQ-ITC Analysis software (Malvern 1.1.0.1262) using a single binding site model. For each experiment, the first data point was removed from the analysis. The proteins were dialysed at 4 °C overnight in a Slide-A-LyzerR MINI Dialysis Device (2000 MWCO; Thermo Scientific Life Technologies) into 50 mM HEPES, 150 mM NaCl containing 0.2% DMSO; pH 7.4. Proteins were centrifuged to remove aggregates (3 min, 3000 rpm, 25 °C).
# Compounds were dissolved as a DMSO stock solution and diluted to the required concentration using dialysis buffer (DMSO free) and to a final DMSO concentration of 0.2% (unless otherwise specified). The cell was stirred at 750 rpm, reference power set to 5 μcal/s and temperature held at 25 °C. After an initial delay of 60 s, 19 x 2 μL injections (first injection 0.4 μL) were performed with a spacing of 180 s. […]
# [4] = target: SmBRD3(1,2) (Schistosoma mansoni, UniProt A0A5K4ESD7); assay: biochemical; format: binding; conditions: for Kd: ITC
# [5] = CAD solubility assay; format: physicochemical; conditions: phosphate buffered saline, pH 7.4, phosphate buffered saline at pH 7.4; read-out: Aqueous Solubility by CAD
# Protocol: A CAD solubility assay was carried out by Physchem Team, Discovery Analytical, NCE Molecular Discovery at GSK. 5 μL of 10 mM DMSO stock solution was diluted to 100 μL with pH 7.4 phosphate buffered saline, equilibrated for 1 h at room temperature, and filtered through Millipore MultiscreenHTS-PCF filter plates (MSSL BPC). The filtrate was quantified using a suitably calibrated charged aerosol detector.[45]
# [6] = target: T1, HsBRD4(1) (Homo sapiens, UniProt O60885); assay: Isothermal titration calorimetry (ITC), HsBRD4(1); format: binding; conditions: single value ± error of the curve fit
# T1 construct: HsBRD4(1) Kd (ITC, nM); made in house; host or cells: E. coli BL21(DE3)
# [7] = chromLogD assay; format: physicochemical; conditions: reversed phase HPLC column (Gemini NX C18), pH 7.4
# Protocol: Lipophilicity: a chromLogD assay was carried out by the Physchem Team, Discovery Analytical, NCE Molecular Discovery at GSK. The chromatographic hydrophobicity index (CHI)[46],[47] values were measured using reversed phase HPLC column (50 × 2 mm […] Gemini NX C18, Phenomenex, UK) with fast acetonitrile gradient at starting mobile phase of pHs 2, 7.4, or 10.5. CHI values were derived directly from the gradient retention times using calibration parameters for standard compounds. The CHI value approximates to the volume % organic concentration when the compound elutes. CHI was linearly transformed into a chromLogD[48] value by least-squares fitting of experimental CHI values to calculated cLogP values for over 20000 research compounds.
# [8] = tested on: S. mansoni adult worms; assay: Ex vivo adult worm screening (motility, IVLEs, pairing); set-up: species or system Schistosoma mansoni; conditions: 72 h
# Protocol: S. mansoni adult worms were recovered by hepatic portal vein perfusion from TO mice (Mus musculus HsdOLa:TO - Tuck Ordinary; Envigo, UK) that were percutaneously infected 7 weeks earlier with 180 cercariae.[65],[71] Following perfusion, schistosomes were washed and processed as previously described.[65],[66] Subsequently, schistosome pairs were seeded into 48 well tissue culture plates (1 worm pair/well, in duplicate) and dosed with the compounds (20 μM in 0.2% DMSO). DMSO (0.2%) and praziquantel (10 μM in 0.1% DMSO) were also included as negative and positive controls, respectively. Parasite motility was assessed by a digital image processing-based system (WormassayGP2),[66] modified after Wormassay.[72]In vitro laid eggs (IVLEs) were enumerated and the presence or absence of paired worms was noted.
# [9] = tested on: S. mansoni schistosomula; assay: Ex vivo schistosomula screening (Roboworm high content imaging); set-up: species or system Schistosoma mansoni; conditions: 20 μM (Figure 7) or 10 μM (Figure S48); 72 h
# Protocol: A high-throughput imaging platform that quantifies both phenotype and motility ex vivo, was used to screen compounds against schistosomula; their effects were assessed as previously described.[20] Briefly, the schistosomula stage of S. mansoni was obtained by mechanical transformation of cercariae, dispensed into 384-well tissue culture plates, and dosed with 20 μM (Figure 7) or 10 μM (Figure S48) of each compound. Following 72 h coincubation of the schistosomula and compound, the plate was subjected to high content imaging to quantify the effects of each compound.
# S. mansoni schistosomula were obtained by mechanical transformation from cercariae as previously described,[64] distributed in 384-well tissue culture plates (PerkinElmer, catalogue number 6007460) at 120 parasites/well and dosed with the selected compounds as previously reported.[65]−[68] For this study, each compound (as 10 mM DMSO stock solution) was initially tested at two concentration points (20 and 10 μM final concentration, in duplicates) in at least four independent screens (Z′ scores above 0.35).[69] Each screen contained both positive (10 μM auranofin (AUR) in 0.625% DMSO) and negative (0.625% DMSO) controls. […] Following 72 h schistosomula/compound coincubation, the plate was analyzed by the Roboworm platform.[70] EC50 values were calculated from the titrated concentrations by nonlinear regression, after log transformation of concentrations and data normalization using GraphPad Prism 7.02.
# SmBRD3(2), sequence (A0A5K4ESD7 entry or part of it): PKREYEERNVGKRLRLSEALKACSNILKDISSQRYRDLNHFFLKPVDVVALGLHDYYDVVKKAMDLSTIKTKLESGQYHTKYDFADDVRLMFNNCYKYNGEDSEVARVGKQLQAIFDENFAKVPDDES
# SmBRD3(1,2) (Schistosoma mansoni, UniProt A0A5K4ESD7), sequence (A0A5K4ESD7 entry or part of it): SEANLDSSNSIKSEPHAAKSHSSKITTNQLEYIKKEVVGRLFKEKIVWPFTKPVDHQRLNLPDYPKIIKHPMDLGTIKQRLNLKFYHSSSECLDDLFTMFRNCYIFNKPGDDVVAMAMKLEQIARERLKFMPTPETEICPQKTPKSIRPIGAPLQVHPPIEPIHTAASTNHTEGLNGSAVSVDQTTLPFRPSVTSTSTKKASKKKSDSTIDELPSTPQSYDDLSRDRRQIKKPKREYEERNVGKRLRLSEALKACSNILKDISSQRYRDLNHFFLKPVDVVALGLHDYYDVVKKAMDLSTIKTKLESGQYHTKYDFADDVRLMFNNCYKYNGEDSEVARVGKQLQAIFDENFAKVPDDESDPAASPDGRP
structure (smiles),measurement,setting,value
"Cc1noc(C)c1-c1cc(O)cc(C(O)c2ccccc2)c1 (centres unmarked) [OXFBD02 (1), OXFBD02, reference compound]","SmBRD3(2) Kd, Repeat 1","[1]; ITC, single run ± error of curve fit, Repeat 1",No binding
same,SmBRD3(2) Kd,"[1]; ITC, single value ± error of the curve fit or mean of 2-3 repeats ± s.e.m.",no binding detected; also recorded: No detectable binding
same,Effect on miracidia to sporocyst transformation,[2]; 26 °C,modest effects
same,"Thermal stabilisation (ΔTm) of SmBRD3(1,2)",[3],"stabilize SmBRD3(1,2)"
same,"N number, binding to SmBRD3(1,2)","[4]; ITC stoichiometry, n=1 ± error of curve fit",1.61 ± 3.3e-2
same,Kd,"[4]; SmBRD3(1,2) Kd, n = 1 ± error of the curve fit",683 ± 166 nM
same,Kd,"[4]; SmBRD3(1,2) pKd",631 nM
"CC(=O)N1c2ccc(-c3ccc(C(=O)O)cc3)cc2[C@H](Nc2ccc3ccsc3c2)C[C@@H]1C [Compound 9, 4-{(2S,4R)-1-Acetyl-4-[(1-benzothiophen-6-yl)amino]-2-methyl-1,2,3,4-tetrahydroquinolin-6-yl}benzoic Acid]","N number, binding to SmBRD3(2), Repeat 1","[1]; ITC stoichiometry, Repeat 1",1.52 ± 2.2e-2
same,"N number, binding to SmBRD3(2), Repeat 2","[1]; ITC stoichiometry, Repeat 2",1.57 ± 3.4e-2
same,"N number, binding to SmBRD3(2), Repeat 3","[1]; ITC stoichiometry, Repeat 3",1.64 ± 3.3e-2
same,"N number, binding to SmBRD3(2), Mean","[1]; ITC stoichiometry, mean of repeats",1.58
same,Kd,"[1]; ITC, read-out: SmBRD3(2) pKd (converted)",631 nM
same,Kd,"[1]; ITC, single run ± error of curve fit, Repeat 1, read-out: SmBRD3(2) Kd, Repeat 1",572 ± 103 nM
same,Kd,"[1]; ITC, single run ± error of curve fit, Repeat 2, read-out: SmBRD3(2) Kd, Repeat 2",778 ± 179 nM
same,Kd,"[1]; ITC, single run ± error of curve fit, Repeat 3, read-out: SmBRD3(2) Kd, Repeat 3",753 ± 176 nM
same,Kd,[1]; read-out: SmBRD3(2) Kd,701 ± 64.9 nM
same,solubility at 1 h,[5],≥ 259 µM
same,HsBRD4(1) Kd (ITC),[6],high affinity
same,Kd,[6],64.4 ± 20.7 nM
same,chromatographic logD,[7],2.83
"CCOC(=O)c1ccc(-c2ccc3c(c2)[C@@H](Nc2ccc4ccsc4c2)C[C@@H](C)N3C(C)=O)cc1 [Compound 17, Ethyl 4-{(2R,4S)-1-Acetyl-4-[(1-benzothiophen-6-yl)amino]-2-methyl-1,2,3,4-tetrahydroquinolin-6-yl}benzoate]",Effect on adult worm movement,[8]; 20 μM in 0.2% DMSO,some modest effects
same,Effect on egg count (in vitro laid eggs),[8]; 20 μM,some modest effects
same,SmBRD3(2) Kd,[1],No binding
same,"SmBRD3(2) Kd, Repeat 1",[1],No binding
same,solubility at 1 h,[5],1 µM
same,Toxicity to miracidia (dead parasites),[2],toxic at the higher concentrations
same,Effect on schistosomula motility,[9],did not have substantial effects
same,Effect on schistosomula phenotype,[9],did not have substantial effects
same,chromatographic logD,[7],7.61
